Experimental data reported in US20260240799A1, “TREATMENT OF PRIMARY BILIARY CHOLANGITIS” (Genfit, priority 2023, published 2026).
“Also recorded” adds a separate entry of the source.

Tests used:
[1] = test system: participants with primary biliary cholangitis; experiment: PROMIS Fatigue SF 7a T-score in phase 3 trial NCT04526665 (ELATIVE); format: in vivo, human; set-up: key to PROMIS Fatigue T-score, observed mean / PROMIS Fatigue T-score, observed median: standardized T-score, mean 50, SD 10; higher = more fatigue; settings: for Change from baseline in PROMIS Fatigue T-score, mean / Change from baseline in PROMIS Fatigue T-score, median / Change from baseline in PROMIS Fatigue T-score, LS means (MMRM) / Change from baseline in PROMIS Fatigue T-score, LS means difference with placebo (MMRM) / PROMIS Fatigue T-score, observed mean / PROMIS Fatigue T-score, observed median: 80 mg once daily
Source text: The patient's fatigue can be measured using the PROMIS Short Form—Fatigue 7a questionnaire (V1.0) to assess change from baseline in fatigue during treatment. The PROMIS Fatigue item banks assess a range of self-reported symptoms over the past seven days, from mild subjective feelings of tiredness to an overwhelming, debilitating, and sustained sense of exhaustion that likely decreases one's ability to execute daily activities and function normally in family or social roles. Fatigue is divided into the experience of fatigue (frequency, duration, and intensity) and the impact of fatigue on physical, mental, and social activities. PROMIS instruments are scored using item-level calibrations. The final score is represented by the T-score, a standardized score with a mean of 50 and a standard deviation (SD) of 10. A 1-point decrease of the PROMIS Fatigue T-score represents a meaningful change in fatigue. This improvement corresponds to changes in alertness and well-being that are easily noticeable. Likewise, a noticeable worsening corresponds to a 1-point increase of the PROMIS Fatigue T-score (Schattenberg et al.; “Evaluating Pruritus and Fatigue in Patients with Treatment-Refractory Primary Biliary Cholangitis” EASL 21-24 Jun. 2023).
Participants aged 18 to 75 years, who had been diagnosed with primary biliary cholangitis according to established criteria, were recruited at 82 sites in 14 countries. Inclusion criteria were an alkaline phosphatase level of ≥1.67 times the upper limit of the normal range (ULN), and a total bilirubin level of ≤2 times the ULN. Prior to screening, eligible participants had received 13 to 15 mg/kg ursodeoxycholic acid treatment per day for at least 12 months (stable dose for at least 3 months) or were intolerant to ursodeoxycholic acid (no treatment for at least 3 months).
In this double-blind, placebo-controlled, phase 3 trial, participants with an inadequate response or intolerance to ursodeoxycholic acid were randomized 2:1 to receive elafibranor 80 mg or placebo once daily. Participants receiving stable doses of ursodeoxycholic acid for at least three months prior to enrollment continued their treatment regimen throughout the trial. The overall double-blind treatment period consisted of two parts. In part one, all randomized patients received a minimum of 52 weeks of double-blind treatment. In part two, participants continued to receive double-blind treatment beyond Week 52 in a variable treatment period until all participants had completed their Week 52 assessment or until a maximum treatment duration of 104 weeks, whichever came first. The first database lock occurred after the last participant completed its Week 52 visit in the double-blind period. At the end of the double-blind period (lasting 52 to 104 weeks), participants could optionally enter an open-label extension where they would receive elafibranor 80 mg for up to five years.
From September 2020 through May 2023, 161 participants were randomly assigned to receive elafibranor 80 mg (108 participants) or placebo (53 participants); these participants made up the intent-to-treat (ITT) and safety populations. The pruritus intent-to-treat population included 66 participants with moderate-to-severe pruritus (44 receiving elafibranor, 22 receiving placebo).
The Patient Reported Outcome Measurement Information System (PROMIS®) is the product of a massive effort begun in 2004 and based on modern measurement theory, to address the need to develop precise, consensus measures of health outcome, including fatigue, suitable for use across chronic diseases in particular PBC. The PROMIS Fatigue Short Form 7a (PROMIS Fatigue SF 7a) is a seven-item questionnaire derived from the 95-item PROMIS Fatigue item bank. […]

[2] = test system: serum alkaline phosphatase (ALP); experiment: serum ALP change in phase 3 study on PBC (ELATIVE); format: in vivo, human; settings: elafibranor 80 mg treatment group; PBC (placebo 3.2%)
patients with PBC [3] = experiment: safety and tolerability in PBC patients; format: in vivo, human
patients with PBC [4] = settings: cited from earlier work
[5] = Week 4, Pruritus ITT analysis set
[6] = Week 13, Pruritus ITT analysis set
[7] = Week 26, Pruritus ITT analysis set
[8] = Week 39, Pruritus ITT analysis set
[9] = Week 52, Pruritus ITT analysis set

CSc1ccc(C(=O)C=Cc2cc(C)c(OC(C)(C)C(=O)O)c(C)c2)cc1 [Elafibranor, 2-(2,6-dimethyl-4-{3-[4-(methylsulfanyl)phenyl]-3-oxopropen-1-yl}phenoxy)-2-methylpropanoic acid]
effect on fatigue (PROMIS Fatigue SF 7a) compared to placebo, in words ([1]; 80 mg daily, participants with PBC): significative reduction; also recorded: improvement in fatigue
Change from baseline in PROMIS Fatigue T-score, mean ([1]; Week 4, ITT analysis set): −1.66
Change from baseline in PROMIS Fatigue T-score, median ([1]; Week 4, ITT analysis set): −1.60
Change from baseline in PROMIS Fatigue T-score, mean [1, 5]: −2.86
Change from baseline in PROMIS Fatigue T-score, median [1, 5]: −2.70
Change from baseline in PROMIS Fatigue T-score, LS means (MMRM) ([1]; Week 13, ITT analysis set): −2.16
Change from baseline in PROMIS Fatigue T-score, LS means difference with placebo (MMRM) ([1]; Week 13, ITT analysis set): −2.11
Change from baseline in PROMIS Fatigue T-score, mean ([1]; Week 13, ITT analysis set): −2.24
Change from baseline in PROMIS Fatigue T-score, median ([1]; Week 13, ITT analysis set): −1.50
PROMIS Fatigue T-score, observed mean ([1]; Week 13, ITT analysis set): 53.63
PROMIS Fatigue T-score, observed median ([1]; Week 13, ITT analysis set): 52.95
Change from baseline in PROMIS Fatigue T-score, LS means (MMRM) [1, 6]: −3.50
Change from baseline in PROMIS Fatigue T-score, LS means difference with placebo (MMRM) [1, 6]: −3.15
Change from baseline in PROMIS Fatigue T-score, mean [1, 6]: −3.54
PROMIS Fatigue T-score, observed mean [1, 6]: 57.49
PROMIS Fatigue T-score, observed median [1, 6]: 59.20
Change from baseline in PROMIS Fatigue T-score, mean ([1]; Week 26, ITT analysis set): −2.23
Change from baseline in PROMIS Fatigue T-score, median ([1]; Week 26, ITT analysis set): −1.55
Change from baseline in PROMIS Fatigue T-score, mean [1, 7]: −3.50
Change from baseline in PROMIS Fatigue T-score, median [1, 7]: −3.20
Change from baseline in PROMIS Fatigue T-score, mean ([1]; Week 39, ITT analysis set): −2.41
Change from baseline in PROMIS Fatigue T-score, median ([1]; Week 39, ITT analysis set): −1.45
Change from baseline in PROMIS Fatigue T-score, mean [1, 8]: −4.54
Change from baseline in PROMIS Fatigue T-score, median [1, 8]: −4.05
Change from baseline in PROMIS Fatigue T-score, LS means (MMRM) ([1]; Week 52, ITT analysis set): −2.45
Change from baseline in PROMIS Fatigue T-score, LS means difference with placebo (MMRM) ([1]; Week 52, ITT analysis set): −1.23
Change from baseline in PROMIS Fatigue T-score, mean ([1]; Week 52, ITT analysis set): −2.75
Change from baseline in PROMIS Fatigue T-score, median ([1]; Week 52, ITT analysis set): −2.80
PROMIS Fatigue T-score, observed mean ([1]; Week 52, ITT analysis set): 53.70
PROMIS Fatigue T-score, observed median ([1]; Week 52, ITT analysis set): 53.70
Change from baseline in PROMIS Fatigue T-score, LS means (MMRM) [1, 9]: −4.53
Change from baseline in PROMIS Fatigue T-score, LS means difference with placebo (MMRM) [1, 9]: −3.77
Change from baseline in PROMIS Fatigue T-score, mean [1, 9]: −4.58
Change from baseline in PROMIS Fatigue T-score, median [1, 9]: −4.20
PROMIS Fatigue T-score, observed mean [1, 9]: 56.23
PROMIS Fatigue T-score, observed median [1, 9]: 56.45
mean relative change from baseline to endpoint in serum ALP [2]: −48.3%
safety and tolerability (patients with PBC [3]): safe and well-tolerated

CC[C@H]1[C@@H](O)[C@@H]2[C@H](CC[C@]3(C)[C@@H]([C@H](C)CCC(=O)O)CC[C@@H]23)[C@@]2(C)CC[C@@H](O)C[C@@H]12 [OCA, obeticholic acid]
fatigue as side effect of treatment (patients with PBC [4]): one of the most common side effects
